Consider 3 compounds from ChEMBL document CHEMBL5303573, “Mapping human microbiome drug metabolism by gut bacteria and their genes” (Nature, 2019).

One series concerns the target T1, SGNH hydrolase-type esterase domain-containing protein (Phocaeicola dorei, UniProt B6W1J1).
T1 sequence (B6W1J1 whole entry): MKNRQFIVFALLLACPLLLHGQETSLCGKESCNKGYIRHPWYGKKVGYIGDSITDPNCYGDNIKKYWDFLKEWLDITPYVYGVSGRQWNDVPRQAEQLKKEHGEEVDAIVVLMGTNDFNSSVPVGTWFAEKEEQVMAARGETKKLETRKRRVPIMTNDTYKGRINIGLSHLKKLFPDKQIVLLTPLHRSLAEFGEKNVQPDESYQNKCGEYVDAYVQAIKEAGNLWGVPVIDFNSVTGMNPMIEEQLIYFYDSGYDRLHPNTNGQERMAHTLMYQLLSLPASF
Nature of the series: (§1) The drug is tested on Bacteroides dorei strain: DSM17855 for biotransformation. The drug concentrations were measured before and after a 12-h incubation by liquid-chromatography-coupled mass spectrometry (LC–MS). More on the design: dose 2 uM. The format is ADME. The conditions noted are these: 2 µM.
Consider `C[C@@H]1CC[C@H]2[C@@H](C)C(=O)O[C@@H]3O[C@@]4(C)CC[C@@H]1[C@]32OO4` [ARTEMISININ], for which the “Bacterial Biotransformation” value is reported as “Compound NOT metabolized”.

Regarding `COc1ccnc(C[S+]([O-])c2nc3ccc(OC(F)F)cc3[nH]2)c1OC` (centres undefined) [PANTOPRAZOLE], the “Bacterial Biotransformation” value is recorded as “Compound metabolized”.

`CC(=O)Nc1ccc(OC(C)=O)cc1` [DIACETAMATE]: the “Bacterial Biotransformation” value is “Compound metabolized”.

The next series addresses T2, Steroid 5-alpha reductase C-terminal domain-containing protein (Phocaeicola dorei, UniProt B6W0N3).
T2 sequence (B6W0N3 whole entry): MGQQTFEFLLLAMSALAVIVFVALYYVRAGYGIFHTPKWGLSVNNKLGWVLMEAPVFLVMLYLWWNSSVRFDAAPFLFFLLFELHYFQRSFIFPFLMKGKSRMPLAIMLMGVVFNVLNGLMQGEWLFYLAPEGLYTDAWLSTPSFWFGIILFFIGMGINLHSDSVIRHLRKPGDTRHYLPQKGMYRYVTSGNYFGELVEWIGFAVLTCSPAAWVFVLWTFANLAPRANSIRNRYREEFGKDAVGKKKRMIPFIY
The description is as §1. The format is ADME. More on the design: dose 2 uM. Conditions: 2 µM.
For the compound `C[C@@H]1CC[C@H]2[C@@H](C)C(=O)O[C@@H]3O[C@@]4(C)CC[C@@H]1[C@]32OO4` [ARTEMISININ], the “Bacterial Biotransformation” value is on record as “Compound NOT metabolized”.

As for `COc1ccnc(C[S+]([O-])c2nc3ccc(OC(F)F)cc3[nH]2)c1OC` (centres undefined) [PANTOPRAZOLE], the “Bacterial Biotransformation” value is recorded as “Compound NOT metabolized”.

As to `CC(=O)Nc1ccc(OC(C)=O)cc1` [DIACETAMATE], the “Bacterial Biotransformation” value was “Compound NOT metabolized”.

A further series has as its target T3, Lipoprotein (Bacteroides thetaiotaomicron, UniProt Q8A343).
T3 sequence (Q8A343 whole entry): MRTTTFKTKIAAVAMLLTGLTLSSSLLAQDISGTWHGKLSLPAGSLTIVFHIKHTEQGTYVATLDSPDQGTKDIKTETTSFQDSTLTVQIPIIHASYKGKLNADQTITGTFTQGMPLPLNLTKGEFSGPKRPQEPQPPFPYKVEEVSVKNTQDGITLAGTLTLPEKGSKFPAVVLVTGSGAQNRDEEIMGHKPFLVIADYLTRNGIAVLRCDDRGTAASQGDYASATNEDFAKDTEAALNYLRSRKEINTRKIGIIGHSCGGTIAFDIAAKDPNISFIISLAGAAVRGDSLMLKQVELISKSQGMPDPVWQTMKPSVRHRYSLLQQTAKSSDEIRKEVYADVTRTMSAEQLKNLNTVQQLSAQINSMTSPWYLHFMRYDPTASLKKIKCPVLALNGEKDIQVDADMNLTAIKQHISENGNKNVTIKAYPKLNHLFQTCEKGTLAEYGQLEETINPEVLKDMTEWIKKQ
In words: (§2) The drug is tested on Bacteroides thetaiotaomicron strain: VPI-5482 for biotransformation. The drug concentrations were measured before and after a 12-h incubation by liquid-chromatography-coupled mass spectrometry (LC–MS). Type of series: ADME. More on the design: dose 2 uM. Conditions: 2 µM.
With `C[C@@H]1CC[C@H]2[C@@H](C)C(=O)O[C@@H]3O[C@@]4(C)CC[C@@H]1[C@]32OO4` [ARTEMISININ], the “Bacterial Biotransformation” value was “Compound NOT metabolized”.

Turning to `COc1ccnc(C[S+]([O-])c2nc3ccc(OC(F)F)cc3[nH]2)c1OC` (centres undefined) [PANTOPRAZOLE], the “Bacterial Biotransformation” value is “Compound NOT metabolized”.

Regarding `CC(=O)Nc1ccc(OC(C)=O)cc1` [DIACETAMATE], the “Bacterial Biotransformation” value is given as “Compound NOT metabolized”.

For another series, the target named is T4, Acylhydrolase (Bacteroides thetaiotaomicron, UniProt Q8AA96).
T4 sequence (Q8AA96 whole entry): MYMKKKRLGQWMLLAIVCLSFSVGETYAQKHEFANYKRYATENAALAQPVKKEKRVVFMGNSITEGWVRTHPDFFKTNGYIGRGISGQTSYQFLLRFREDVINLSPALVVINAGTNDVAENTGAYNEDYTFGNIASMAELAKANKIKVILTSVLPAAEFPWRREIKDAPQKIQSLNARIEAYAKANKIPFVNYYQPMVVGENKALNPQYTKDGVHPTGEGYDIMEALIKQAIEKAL
The description is as §2. Type of series: ADME. More on the design: dose 2 uM. The conditions noted are these: 2 µM.
With `C[C@@H]1CC[C@H]2[C@@H](C)C(=O)O[C@@H]3O[C@@]4(C)CC[C@@H]1[C@]32OO4` [ARTEMISININ], the “Bacterial Biotransformation” value is given as “Compound NOT metabolized”.

Regarding `COc1ccnc(C[S+]([O-])c2nc3ccc(OC(F)F)cc3[nH]2)c1OC` (centres undefined) [PANTOPRAZOLE], the “Bacterial Biotransformation” value is on record as “Compound NOT metabolized”.

`CC(=O)Nc1ccc(OC(C)=O)cc1` [DIACETAMATE]: the “Bacterial Biotransformation” value is “Compound metabolized”.

The next series deals with T5, Xylanase (Bacteroides thetaiotaomicron, UniProt Q8A8H5).
T5 sequence (Q8A8H5 whole entry): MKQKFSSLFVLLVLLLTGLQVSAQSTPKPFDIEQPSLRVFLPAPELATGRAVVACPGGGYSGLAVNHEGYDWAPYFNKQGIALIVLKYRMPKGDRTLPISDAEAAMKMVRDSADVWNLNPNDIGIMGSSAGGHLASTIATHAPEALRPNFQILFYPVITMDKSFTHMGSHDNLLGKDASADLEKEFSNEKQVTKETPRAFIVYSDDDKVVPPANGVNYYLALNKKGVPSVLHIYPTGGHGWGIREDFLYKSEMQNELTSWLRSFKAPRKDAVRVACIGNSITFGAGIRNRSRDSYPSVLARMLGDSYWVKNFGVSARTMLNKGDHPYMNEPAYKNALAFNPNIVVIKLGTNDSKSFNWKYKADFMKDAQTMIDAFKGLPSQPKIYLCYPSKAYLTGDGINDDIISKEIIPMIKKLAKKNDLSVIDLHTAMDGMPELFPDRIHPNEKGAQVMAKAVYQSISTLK
Described as §2. The conditions noted are these: 2 µM. Type of series: ADME. On the set-up: dose 2 uM.
`C[C@@H]1CC[C@H]2[C@@H](C)C(=O)O[C@@H]3O[C@@]4(C)CC[C@@H]1[C@]32OO4` [ARTEMISININ]: the “Bacterial Biotransformation” value is “Compound NOT metabolized”.

Consider `COc1ccnc(C[S+]([O-])c2nc3ccc(OC(F)F)cc3[nH]2)c1OC` (centres undefined) [PANTOPRAZOLE], for which the “Bacterial Biotransformation” value is on record as “Compound NOT metabolized”.

For the compound `CC(=O)Nc1ccc(OC(C)=O)cc1` [DIACETAMATE], the “Bacterial Biotransformation” value is listed as “Compound metabolized”.

Another series deals with T6, Lipolytic enzyme, G-D-S-L family (Bacteroides thetaiotaomicron, UniProt Q8A0C5).
T6 sequence (Q8A0C5 whole entry): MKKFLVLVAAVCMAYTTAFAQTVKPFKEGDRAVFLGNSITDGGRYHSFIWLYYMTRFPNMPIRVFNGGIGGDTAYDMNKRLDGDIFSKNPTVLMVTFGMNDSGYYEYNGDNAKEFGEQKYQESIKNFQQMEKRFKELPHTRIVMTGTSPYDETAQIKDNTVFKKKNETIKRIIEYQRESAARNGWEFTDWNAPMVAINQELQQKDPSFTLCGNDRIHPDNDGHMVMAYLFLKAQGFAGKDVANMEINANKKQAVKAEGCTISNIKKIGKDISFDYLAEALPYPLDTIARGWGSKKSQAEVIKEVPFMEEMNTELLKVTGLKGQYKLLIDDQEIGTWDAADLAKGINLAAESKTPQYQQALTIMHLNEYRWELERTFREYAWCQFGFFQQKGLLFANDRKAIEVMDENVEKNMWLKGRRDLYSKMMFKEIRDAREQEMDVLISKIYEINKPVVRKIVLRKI
The series is described as §2. The format is ADME. More on the design: dose 2 uM. Conditions: 2 µM.
In the case of `C[C@@H]1CC[C@H]2[C@@H](C)C(=O)O[C@@H]3O[C@@]4(C)CC[C@@H]1[C@]32OO4` [ARTEMISININ], the “Bacterial Biotransformation” value is reported as “Compound NOT metabolized”.

Regarding `COc1ccnc(C[S+]([O-])c2nc3ccc(OC(F)F)cc3[nH]2)c1OC` (centres undefined) [PANTOPRAZOLE], the “Bacterial Biotransformation” value is listed as “Compound NOT metabolized”.

As to `CC(=O)Nc1ccc(OC(C)=O)cc1` [DIACETAMATE], the “Bacterial Biotransformation” value is listed as “Compound metabolized”.

The target of another series is T7, NADH dehydrogenase/NAD(P)H nitroreductase (Bacteroides thetaiotaomicron, UniProt Q8A8L9).
T7 sequence (Q8A8L9 whole entry): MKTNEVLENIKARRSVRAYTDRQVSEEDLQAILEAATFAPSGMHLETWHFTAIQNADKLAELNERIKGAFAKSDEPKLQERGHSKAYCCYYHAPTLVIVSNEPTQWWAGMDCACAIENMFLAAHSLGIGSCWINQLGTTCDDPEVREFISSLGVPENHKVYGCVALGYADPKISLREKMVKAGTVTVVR
The series is described as §2. Conditions: 2 µM. More on the design: dose 2 uM. The format is ADME.
As for `C[C@@H]1CC[C@H]2[C@@H](C)C(=O)O[C@@H]3O[C@@]4(C)CC[C@@H]1[C@]32OO4` [ARTEMISININ], the “Bacterial Biotransformation” value was “Compound NOT metabolized”.

For `COc1ccnc(C[S+]([O-])c2nc3ccc(OC(F)F)cc3[nH]2)c1OC` (centres undefined) [PANTOPRAZOLE], the “Bacterial Biotransformation” value was “Compound NOT metabolized”.

As for `CC(=O)Nc1ccc(OC(C)=O)cc1` [DIACETAMATE], the “Bacterial Biotransformation” value is reported as “Compound NOT metabolized”.

The next series deals with T8, Nitroreductase-like protein (Bacteroides thetaiotaomicron, UniProt Q8AB93).
T8 sequence (Q8AB93 whole entry): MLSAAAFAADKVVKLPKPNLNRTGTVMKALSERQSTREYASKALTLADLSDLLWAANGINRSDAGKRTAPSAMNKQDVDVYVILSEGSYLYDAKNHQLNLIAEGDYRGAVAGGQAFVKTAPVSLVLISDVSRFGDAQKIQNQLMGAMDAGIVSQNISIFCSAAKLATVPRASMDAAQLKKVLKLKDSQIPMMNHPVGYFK
Described as §2. On the set-up: dose 2 uM. The format is ADME. Conditions: 2 µM.
On to `C[C@@H]1CC[C@H]2[C@@H](C)C(=O)O[C@@H]3O[C@@]4(C)CC[C@@H]1[C@]32OO4` [ARTEMISININ], for which the “Bacterial Biotransformation” value is listed as “Compound NOT metabolized”.

With `COc1ccnc(C[S+]([O-])c2nc3ccc(OC(F)F)cc3[nH]2)c1OC` (centres undefined) [PANTOPRAZOLE], the “Bacterial Biotransformation” value is on record as “Compound NOT metabolized”.

`CC(=O)Nc1ccc(OC(C)=O)cc1` [DIACETAMATE]: the “Bacterial Biotransformation” value is listed as “Compound NOT metabolized”.
